Results published in patent US8053436B1, “9-(piperazinylalkyl) carbazoles as bax-modulators” (Merck Serono SA, priority 1999, dated 2011).
Structures can show the parent of a compound that is named as a salt.

Assays:
[1] = target: T1, Bid-induced Bax activation (mitochondria isolated from HeLa cells) (Homo sapiens, UniProt Q07812); assay: Mitochondria cytochrome c release triggered by Bid-induced Bax activation; format: biochemical; details: Compounds were tested at 10 μM, 10 nM recombinant Bid
T1 construct: endogenous in cells; host or cells: mitochondria isolated from HeLa cells
Protocol: d) Effect of Compounds according to formula I onto the Release of Cytochrome c Triggered by Bid-Induced Bax Activation (Mitochondria Cytochrome c Release Triggered by Bid-Induced Bax Activation)
Mitochondria isolated from HeLa cells are incubated for 15 min at 30° C. in […] of KCl buffer in the presence or absence of 10 nM recombinant Bid. The various compounds (10 μM) are pre-incubated for 5 min prior to addition of Bid. Following incubation, mitochondria were centrifuged for 5 min at 13000 g at 4° C. and the supernatant is collected for cytochrome c analysis. Cytochrome c is detected by Western blotting. The cytochrome c bands are scanned and quantified using a Bio-Rad (GS-700 Imaging Densitometer).
(§1) The above set out 2 in vitro assays c) and d) involving the determination of mitochondrial cytochrome c release are based on immunochemical methods using the Western blot analysis. Alternatively, said quantitative cytochrome c determinations could be performed by using spectrophotometric means: • I. by recording the difference between reduced and oxidised cytochrome c by dual wavelength double beam spectrophotometry; • by measuring the rather intensive γ or Soret peak in the spectrum of cytochrome c (ε=100 mM^−1 cm^−1) is used for rapid and quantitative determination of the release of cytochrome c from isolated mitochondria.

[2] = target: T2, recombinant Bax (Human Bax-α), mitochondria from mouse liver (Homo sapiens, UniProt Q07812); assay: In vitro assay for cytochrome c release (mitochondria cytochrome c release triggered by Bax activation); format: biochemical; details: Compounds were tested at 5 μM, 200 nM recombinant Bax
T2 construct: Human Bax-α lacking 20 amino acids at the COOH-terminus; GST (cleaved yes); His-tag (alternative construct); made in house; host or cells: Escherichia coli
Source text: The cytochrome c bands are scanned and quantified using a Bio-Rad (GS-700 Imaging Densitometer).
as §1

[3] = test system: Sympathetic neurons from superior cervical ganglia (SCG) of newborn rats; assay: Sympathetic neuron culture and survival assay (neuronal survival); format: cell-based; details: Compounds were tested at 10 μM; rat SCG neurons, NGF deprivation (anti NGF antibody), MTT 24 hours after cell death induction
Source text: as §1
Cell death is induced at day 4 after plating by exposing the culture to medium containing 10 µg/ml of anti NGF antibody (Boehringer Mannheim Corp., Indianapolis, Ind.) and no NGF or arabinosine, in the presence or absence of piperazine derivatives of carbazole inhibitors according to formula I. 24 hours after cell death induction, determination of cell viability is performed by incubation of the culture for 1 hour, at 37° C. in 0.5 mg/ml of 3-(4,5-dimethyl-thiazol-2-yl)2,5diphenyl tetrazolium bromide (MTT). After incubation in MTT, cells are re-suspended in DMSO, transferred to a 96 MTT plate and cell viability is evaluated by measuring optical density at 590 nm.

T1 sequence (Q07812 whole entry): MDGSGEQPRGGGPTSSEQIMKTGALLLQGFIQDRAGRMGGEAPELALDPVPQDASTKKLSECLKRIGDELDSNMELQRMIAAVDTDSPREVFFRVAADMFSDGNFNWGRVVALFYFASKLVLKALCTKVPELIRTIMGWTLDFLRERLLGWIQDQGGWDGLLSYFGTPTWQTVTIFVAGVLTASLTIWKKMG
T2 sequence (Q07812 1-172 limits assumed): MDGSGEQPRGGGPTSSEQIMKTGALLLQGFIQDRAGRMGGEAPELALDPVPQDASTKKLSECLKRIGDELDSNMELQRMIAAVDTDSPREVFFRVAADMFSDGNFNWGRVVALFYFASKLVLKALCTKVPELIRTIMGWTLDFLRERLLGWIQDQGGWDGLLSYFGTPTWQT

melting point	SMILES	Neuronal Survival (%) [3]	also measured
261 °C (dec.)	O=C(CN1CCN(CC2CCCCC2)CC1)Cn1c2ccc(Br)cc2c2cc(Br)ccc21 (as salt: hydrochloride) [Example 109, (±)-1-[4-(cyclohexylmethyl)piperazin-1-yl]-3-(3,6-dibromocarbazol-9-yl)acetone]	–	–
231 °C (dec.)	O=C(CN1CCN(CC2CCCCC2)CC1)Cn1c2ccccc2c2cc(-c3ccccc3)ccc21 (as salt: hydrochloride) [Example 111, (±)-1-[4-(Cyclohexylmethyl)piperazin-1-yl]-3-(3-phenylcarbazol-9-yl)acetone]	–	–
265 °C	OC(CN1CCN(CCCc2ccccc2)CC1)Cn1c2ccccc2c2ccccc21 (racemic) (as salt: HCl) [Example 31, (±)-1-Carbazol-9-yl-3-[4-(3-phenyl-propyl)-piperazin-1-yl]-propan-2-ol]	–	–
153 °C	O=C(c1ccccc1)N1CCN(CC(O)Cn2c3ccccc3c3ccccc32)CC1 (racemic) (as salt: HCl) [Example 36, (±)-1-[4-(3-Carbazol-9-yl-2-hydroxy-propyl)-piperazin-1-yl]-1-phenyl-methanone]	–	–
265 to 270 °C (dec.)	OC(CN1CCN(CC2CCCCC2)CC1)Cn1c2ccccc2c2cc(-c3ccccc3)ccc21 (racemic) (as salt: hydrochloride) [Example 66, (±)-1-(4-Cyclohexylmethylpiperazin-1-yl)-3-(3-phenylcarbazol-9-yl)-propan-2-ol]	–	–
253 °C (dec.)	O=S(=O)(Cc1ccccc1)N1CCN(CC(O)Cn2c3ccc(Br)cc3c3cc(Br)ccc32)CC1 (racemic) (as salt: hydrochloride) [Example 71, (±)-1-[4-(Benzylsulfonyl)piperazin-1-yl]-3-(3,6-dibromo-carbazol-9yl)propan-2-ol]	–	–
287 °C (dec.)	OC(CN1CCN(Cc2ccc(Cl)c(Cl)c2)CC1)Cn1c2ccc(Br)cc2c2cc(Br)ccc21 (racemic) (as salt: hydrochloride) [Example 72, (±)-1-(3,6-Dibromo-carbazol-9-yl)-3-[4-(3,4-dichlorobenzyl)piperazin-1-yl]propan-2-ol]	–	–
302 °C (dec.)	OC(CN1CCN(CC2CCCCC2)CC1)Cn1c2ccc(Cl)cc2c2cc(Cl)ccc21 (racemic) (as salt: hydrochloride) [Example 76, (±)-1-[4-(Cyclohexylmethyl)piperazin-1-yl]-3-(3,6-dichloro-carbazol-9-yl)propan-2-ol]	–	–
192 °C (dec.)	OC(CN1CCN(Cc2ccnc3ccccc23)CC1)Cn1c2ccccc2c2cc(Br)ccc21 (racemic) (as salt: hydrochloride) [Example 106, (±)-1-(3-Bromocarbazol-9-yl)-3-[4-(quinolin-4-ylmethyl)piperazin-1-yl]propan-2-ol]	–	–

Second part, the compound before the results:

SMILES	melting point	Neuronal Survival (%) [3]	also measured
OC(CN1CCN(Cc2ccc(F)cc2)CC1)Cn1c2ccccc2c2ccccc21 (racemic) (as salt: HCl) [Example 22, (±)-1-Carbazol-9-yl-3-[4-(4-fluoro-benzyl)-piperazin-1-yl]-propan-2-ol]	251 °C (dec.)	–	–
OC(CN1CCN(Cc2ccc(F)cc2)CC1)Cn1c2ccccc2c2cc(-c3ccccc3)ccc21 (racemic) (as salt: HCl) [Example 24, (±)-1-[4-(4-Fluoro-benzyl)-piperazin-1-yl]-3-(3-phenyl-carbazol-9-yl)-propan-2-ol]	188 °C	–	–
N#Cc1ccc2c(c1)c1cc(C#N)ccc1n2CC(O)CN1CCNCC1 (racemic) (as salt: HCl) [Example 25, (±)-9-(2-Hydroxy-3-piperazin-1-yl-propyl)-carbazole-3,6-dicarbonitrile]	295 °C (dec.)	–	–
Cc1ccc2c3ccccc3n(CC(O)CN3CCN(Cc4ccccc4)CC3)c2c1 (racemic) (as salt: hydrochloride) [Example 1, (±)-1-(4-Benzyl-piperazin-1-yl)-3-(2-methyl-carbazol-9-yl)-propan-2-ol]	239 °C (dec.)	–	–
OC(CN1CCN(Cc2ccccc2)CC1)Cn1c2ccc(Br)cc2c2cc(Br)ccc21 (racemic) [Example 6, (±)-1-(4-Benzyl-piperazin-1-yl)-3-(3,6-dibromo-carbazol-9-yl)-propan-2-ol]	70 to 75 °C	–	–
OC(CN1CCN(Cc2ccc(F)cc2)CC1)Cn1c2ccc(Br)cc2c2cc(Br)ccc21 (racemic) [Example 23, (±)-1-(3,6-Dibromo-carbazol-9-yl)-3-[4-(4-fluoro-benzyl)-piperazin-1-yl]-propan-2-ol]	–	45%	inhibition at 10 µM [1]: 68%; inhibition at 5 µM [2]: 51%
OC(CN1CCNCC1)Cn1c2ccccc2c2cc(-c3ccccc3)ccc21 (racemic) [Example 27, (±)-1-(3-Phenylcarbazol-9-yl)-3-piperazin-1-yl-propan-2-ol]	–	40%	inhibition at 10 µM [1]: 88%; inhibition at 5 µM [2]: 40%
OC(CN1CCN(CC2CCCCC2)CC1)Cn1c2ccc(Br)cc2c2cc(Br)ccc21 (racemic) [Example 45, (±)−1-4-Cyclohexylmethylpiperazin-1-yl)-3-(3,6-dibromo-carbazol-9-yl)-propan-2-ol]	–	60%	Mitochondria Cytochrome c Release Triggered by Bid-Induced Bax Activation (% Inhibition) [1]: 37%
OC(CN1CCN(Cc2ccsc2)CC1)Cn1c2ccc(Br)cc2c2cc(Br)ccc21 (racemic) [Example 60, (±)-1-(3,6-Dibromocarbazol-9-yl)-3-[4-(thien-3-ylmethyl)piperazin-1-yl]propan-2-ol]	–	40%	inhibition at 10 µM [1]: 60%
COc1ccc(CN2CCN(CC(O)Cn3c4ccc(Br)cc4c4cc(Br)ccc43)CC2)cc1 (racemic) [Example 62, (±)-1-(3,6-Dibromocarbazol-9-yl)-3-[4-(4-methoxybenzyl)piperazin-1-yl]propan-2-ol]	–	30%	inhibition at 10 µM [1]: 99%
OC(CN1CCN(CCN2CCOCC2)CC1)Cn1c2ccc(Br)cc2c2cc(Br)ccc21 (racemic) [Example 73, (±)-1-(3,6-Dibromo-carbazol-9-yl)-3-[4-(2-morpholin-4-ethyl)piperazin-1-yl]propan-2-ol]	–	30%	Mitochondria Cytochrome c Release Triggered by Bid-Induced Bax Activation (% Inhibition) [1]: 74%
FC(F)(CN1CCNCC1)Cn1c2ccc(Br)cc2c2cc(Br)ccc21 (racemic) [Example 80, (±)-3,6-Dibromo-9-(2,2-difluoro-3-piperazin-1-ylpropyl)-carbazole]	–	20%	inhibition at 10 µM [1]: 73%
OC(CN1CCN(CCN2CCOCC2)CC1)Cn1c2ccc(Cl)cc2c2cc(Cl)ccc21 (racemic) [Example 110, (±)-1-(3,6-Dichlorocarbazol-9-yl)-3-[4-(2-morpholin-4-ethyl)piperazin-1-yl]propan-2-ol]	–	30%	Mitochondria Cytochrome c Release Triggered by Bid-Induced Bax Activation (% Inhibition) [1]: 87%
